Measurements taken from ChEMBL document CHEMBL4804284.

Tests used:
Parameters in all cases: scale not given: the % may be the effect or the level left
[1] = target: Interleukin-1 receptor-associated kinase 1 (Homo sapiens) (UniProt P51617); experiment: Inhibition of DNA-tagged human IRAK1 assessed as percent of control at 50000 nM by qPCR analysis relative to control
[2] = target: Mitogen-activated protein kinase 3 (Homo sapiens) (UniProt P27361); experiment: Inhibition of DNA-tagged human ERK1 assessed as percent of control at 50000 nM by qPCR analysis relative to control
[3] = target: Ephrin type-B receptor 6 (Homo sapiens) (UniProt O15197); experiment: Inhibition of DNA-tagged human EPHB6 assessed as percent of control at 50000 nM by qPCR analysis relative to control
[4] = target: Ephrin type-A receptor 6 (Homo sapiens) (UniProt Q9UF33); experiment: Inhibition of DNA-tagged human EPHA6 assessed as percent of control at 50000 nM by qPCR analysis relative to control
[5] = test system: Epidermal growth factor receptor (Homo sapiens), P00533 [UNDEFINED MUTATION]; experiment: Inhibition of DNA-tagged human EGFR L747-S752del/P753S double mutant assessed as percent of control at 50000 nM by qPCR analysis relative to control
[6] = test system: Epidermal growth factor receptor (Homo sapiens), P00533 [G719S]; experiment: Inhibition of DNA-tagged human EGFR G719S assessed as percent of control at 50000 nM by qPCR analysis relative to control
[7] = target: Serine/threonine-protein kinase 17A (Homo sapiens) (UniProt Q9UEE5); experiment: Inhibition of DNA-tagged human DRAK1 assessed as percent of control at 50000 nM by qPCR analysis relative to control
[8] = target: Epithelial discoidin domain-containing receptor 1 (Homo sapiens) (UniProt Q08345); experiment: Inhibition of DNA-tagged human DDR1 assessed as percent of control at 50000 nM by qPCR analysis relative to control
[9] = target: Serine/threonine-protein kinase DCLK3 (Homo sapiens) (UniProt Q9C098); experiment: Inhibition of DNA-tagged human DCAMKL3 assessed as percent of control at 50000 nM by qPCR analysis relative to control
[10] = target: Megakaryocyte-associated tyrosine-protein kinase (Homo sapiens) (UniProt P42679); experiment: Inhibition of DNA-tagged human CTK assessed as percent of control at 50000 nM by qPCR analysis relative to control
[11] = target: Casein kinase I isoform gamma-2 (Homo sapiens) (UniProt P78368); experiment: Inhibition of DNA-tagged human CSNK1G2 assessed as percent of control at 50000 nM by qPCR analysis relative to control
[12] = target: Cyclin-dependent kinase-like 2 (Homo sapiens) (UniProt Q92772); experiment: Inhibition of DNA-tagged human CDKL2 assessed as percent of control at 50000 nM by qPCR analysis relative to control
[13] = target: Cyclin-dependent kinase 11A (Homo sapiens) (UniProt Q9UQ88); experiment: Inhibition of DNA-tagged human CDC2L2 assessed as percent of control at 50000 nM by qPCR analysis relative to control
[14] = target: Calcium/calmodulin-dependent protein kinase type IV (Homo sapiens) (UniProt Q16566); experiment: Inhibition of DNA-tagged human CAMK4 assessed as percent of control at 50000 nM by qPCR analysis relative to control
[15] = target: Calcium/calmodulin-dependent protein kinase type II subunit alpha (Homo sapiens) (UniProt Q9UQM7); experiment: Inhibition of DNA-tagged human CAMK2A assessed as percent of control at 50000 nM by qPCR analysis relative to control
[16] = target: Serine/threonine-protein kinase BRSK2 (Homo sapiens) (UniProt Q8IWQ3); experiment: Inhibition of DNA-tagged human BRSK2 assessed as percent of control at 50000 nM by qPCR analysis relative to control
[17] = target: Serine/threonine-protein kinase B-raf (Homo sapiens) (UniProt P15056); experiment: Inhibition of DNA-tagged human BRAF assessed as percent of control at 50000 nM by qPCR analysis relative to control
[18] = target: Tyrosine-protein kinase Blk (Homo sapiens) (UniProt P51451); experiment: Inhibition of DNA-tagged human BLK assessed as percent of control at 50000 nM by qPCR analysis relative to control
[19] = target: Activin receptor type-2A (Homo sapiens) (UniProt P27037); experiment: Inhibition of DNA-tagged human ACVR2A assessed as percent of control at 50000 nM by qPCR analysis relative to control
[20] = target: Dual specificity mitogen-activated protein kinase kinase 5 (Homo sapiens) (UniProt Q13163); experiment: Inhibition of DNA-tagged human MEK5 assessed as percent of control at 50000 nM by qPCR analysis relative to control
[21] = target: Serine/threonine-protein kinase 38 (Homo sapiens) (UniProt Q15208); experiment: Inhibition of DNA-tagged human NDR1 assessed as percent of control at 50000 nM by qPCR analysis relative to control
[22] = target: Mitogen-activated protein kinase 14 (Homo sapiens) (UniProt Q16539); experiment: Inhibition of DNA-tagged human p38-alpha assessed as percent of control at 50000 nM by qPCR analysis relative to control
[23] = target: Serine/threonine-protein kinase PAK 6 (Homo sapiens) (UniProt Q9NQU5); experiment: Inhibition of DNA-tagged human PAK6 assessed as percent of control at 50000 nM by qPCR analysis relative to control
[24] = target: Cyclin-dependent kinase 17 (Homo sapiens) (UniProt Q00537); experiment: Inhibition of DNA-tagged human PCTK2 assessed as percent of control at 50000 nM by qPCR analysis relative to control
[25] = target: STE20-like serine/threonine-protein kinase (Homo sapiens) (UniProt Q9H2G2); experiment: Inhibition of DNA-tagged human SLK assessed as percent of control at 50000 nM by qPCR analysis relative to control
[26] = target: Serine/threonine-protein kinase TAO1 (Homo sapiens) (UniProt Q7L7X3); experiment: Inhibition of DNA-tagged human TAOK1 assessed as percent of control at 50000 nM by qPCR analysis relative to control
[27] = target: Serine/threonine-protein kinase tousled-like 1 (Homo sapiens) (UniProt Q9UKI8); experiment: Inhibition of DNA-tagged human TLK1 assessed as percent of control at 50000 nM by qPCR analysis relative to control
[28] = target: Dual specificity protein kinase TTK (Homo sapiens) (UniProt P33981); experiment: Inhibition of DNA-tagged human TTK assessed as percent of control at 50000 nM by qPCR analysis relative to control
[29] = target: Tyrosine-protein kinase receptor TYRO3 (Homo sapiens) (UniProt Q06418); experiment: Inhibition of DNA-tagged human TYRO3 assessed as percent of control at 50000 nM by qPCR analysis relative to control
[30] = target: Wee1-like protein kinase (Homo sapiens) (UniProt P30291); experiment: Inhibition of DNA-tagged human WEE1 assessed as percent of control at 50000 nM by qPCR analysis relative to control
Sequence of Wee1-like protein kinase (Homo sapiens) (P30291 whole entry, looked up): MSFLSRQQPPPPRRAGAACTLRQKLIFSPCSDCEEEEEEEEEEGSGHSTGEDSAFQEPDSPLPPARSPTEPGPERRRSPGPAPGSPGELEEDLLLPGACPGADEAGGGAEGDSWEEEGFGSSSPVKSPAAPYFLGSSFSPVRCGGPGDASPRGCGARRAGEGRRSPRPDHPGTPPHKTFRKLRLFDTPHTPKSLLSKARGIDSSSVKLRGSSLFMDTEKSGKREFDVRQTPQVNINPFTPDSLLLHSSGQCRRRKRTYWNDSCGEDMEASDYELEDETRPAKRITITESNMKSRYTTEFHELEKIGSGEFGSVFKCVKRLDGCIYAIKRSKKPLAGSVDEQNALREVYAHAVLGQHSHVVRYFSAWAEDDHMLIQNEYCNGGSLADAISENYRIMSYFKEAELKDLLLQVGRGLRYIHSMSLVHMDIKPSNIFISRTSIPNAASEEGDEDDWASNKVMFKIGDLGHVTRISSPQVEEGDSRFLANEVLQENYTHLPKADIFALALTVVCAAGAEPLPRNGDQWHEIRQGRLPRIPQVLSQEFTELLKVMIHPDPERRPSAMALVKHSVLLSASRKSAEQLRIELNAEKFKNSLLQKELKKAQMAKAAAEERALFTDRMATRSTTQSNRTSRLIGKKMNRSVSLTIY

Sequence of Calcium/calmodulin-dependent protein kinase type IV (Homo sapiens) (Q16566 whole entry): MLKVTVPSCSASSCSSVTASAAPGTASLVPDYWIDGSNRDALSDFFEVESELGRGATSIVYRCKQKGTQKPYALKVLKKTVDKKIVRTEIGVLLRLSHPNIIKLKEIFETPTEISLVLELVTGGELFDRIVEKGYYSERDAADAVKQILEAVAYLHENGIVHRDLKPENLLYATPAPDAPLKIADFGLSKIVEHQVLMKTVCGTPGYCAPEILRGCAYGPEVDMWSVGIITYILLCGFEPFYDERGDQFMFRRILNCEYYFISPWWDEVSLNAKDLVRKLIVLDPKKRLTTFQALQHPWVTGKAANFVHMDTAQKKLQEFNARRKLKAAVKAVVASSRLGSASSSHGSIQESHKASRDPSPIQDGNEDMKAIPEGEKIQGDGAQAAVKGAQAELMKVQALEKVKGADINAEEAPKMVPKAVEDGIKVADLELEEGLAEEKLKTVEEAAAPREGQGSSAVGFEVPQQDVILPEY
Sequence of Ephrin type-A receptor 6 (Homo sapiens) (Q9UF33 whole entry): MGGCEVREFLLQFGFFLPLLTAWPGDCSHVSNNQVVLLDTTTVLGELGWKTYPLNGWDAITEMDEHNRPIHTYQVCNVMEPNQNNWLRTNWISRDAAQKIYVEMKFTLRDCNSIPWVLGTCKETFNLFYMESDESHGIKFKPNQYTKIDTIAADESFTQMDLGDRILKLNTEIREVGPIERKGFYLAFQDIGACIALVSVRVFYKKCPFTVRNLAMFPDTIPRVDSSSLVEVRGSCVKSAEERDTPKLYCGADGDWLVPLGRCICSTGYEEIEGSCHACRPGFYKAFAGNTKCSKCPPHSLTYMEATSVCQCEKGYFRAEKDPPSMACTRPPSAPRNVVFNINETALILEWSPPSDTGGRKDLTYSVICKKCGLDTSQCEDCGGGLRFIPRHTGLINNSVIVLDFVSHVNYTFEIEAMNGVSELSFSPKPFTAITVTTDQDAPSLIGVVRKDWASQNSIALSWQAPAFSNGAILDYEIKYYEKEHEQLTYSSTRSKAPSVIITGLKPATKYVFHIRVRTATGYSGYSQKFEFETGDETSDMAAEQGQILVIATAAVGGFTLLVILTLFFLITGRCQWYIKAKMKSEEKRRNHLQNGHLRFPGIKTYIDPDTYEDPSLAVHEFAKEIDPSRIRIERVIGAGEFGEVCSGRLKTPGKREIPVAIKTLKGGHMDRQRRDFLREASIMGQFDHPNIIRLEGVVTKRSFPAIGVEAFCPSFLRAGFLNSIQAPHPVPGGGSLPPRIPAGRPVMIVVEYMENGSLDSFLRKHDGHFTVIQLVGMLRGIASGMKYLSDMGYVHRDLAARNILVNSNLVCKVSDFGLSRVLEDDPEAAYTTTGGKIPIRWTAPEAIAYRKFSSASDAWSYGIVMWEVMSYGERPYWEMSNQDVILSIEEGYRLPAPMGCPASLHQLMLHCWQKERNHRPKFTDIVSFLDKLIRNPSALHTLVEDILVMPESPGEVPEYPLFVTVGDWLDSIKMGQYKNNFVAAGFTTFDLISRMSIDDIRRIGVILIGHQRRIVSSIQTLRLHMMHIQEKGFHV
Sequence of Mitogen-activated protein kinase 3 (Homo sapiens) (P27361 whole entry): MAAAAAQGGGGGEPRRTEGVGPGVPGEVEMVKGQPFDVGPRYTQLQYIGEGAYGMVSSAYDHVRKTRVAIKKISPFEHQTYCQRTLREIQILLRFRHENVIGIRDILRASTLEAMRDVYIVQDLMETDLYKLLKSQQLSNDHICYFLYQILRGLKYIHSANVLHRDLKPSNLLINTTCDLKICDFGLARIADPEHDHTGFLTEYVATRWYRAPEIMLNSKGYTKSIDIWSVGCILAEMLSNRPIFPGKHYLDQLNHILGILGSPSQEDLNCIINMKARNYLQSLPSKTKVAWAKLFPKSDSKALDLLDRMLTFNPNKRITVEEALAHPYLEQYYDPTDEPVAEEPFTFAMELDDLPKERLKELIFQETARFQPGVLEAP
Sequence of Interleukin-1 receptor-associated kinase 1 (Homo sapiens) (P51617 whole entry, looked up): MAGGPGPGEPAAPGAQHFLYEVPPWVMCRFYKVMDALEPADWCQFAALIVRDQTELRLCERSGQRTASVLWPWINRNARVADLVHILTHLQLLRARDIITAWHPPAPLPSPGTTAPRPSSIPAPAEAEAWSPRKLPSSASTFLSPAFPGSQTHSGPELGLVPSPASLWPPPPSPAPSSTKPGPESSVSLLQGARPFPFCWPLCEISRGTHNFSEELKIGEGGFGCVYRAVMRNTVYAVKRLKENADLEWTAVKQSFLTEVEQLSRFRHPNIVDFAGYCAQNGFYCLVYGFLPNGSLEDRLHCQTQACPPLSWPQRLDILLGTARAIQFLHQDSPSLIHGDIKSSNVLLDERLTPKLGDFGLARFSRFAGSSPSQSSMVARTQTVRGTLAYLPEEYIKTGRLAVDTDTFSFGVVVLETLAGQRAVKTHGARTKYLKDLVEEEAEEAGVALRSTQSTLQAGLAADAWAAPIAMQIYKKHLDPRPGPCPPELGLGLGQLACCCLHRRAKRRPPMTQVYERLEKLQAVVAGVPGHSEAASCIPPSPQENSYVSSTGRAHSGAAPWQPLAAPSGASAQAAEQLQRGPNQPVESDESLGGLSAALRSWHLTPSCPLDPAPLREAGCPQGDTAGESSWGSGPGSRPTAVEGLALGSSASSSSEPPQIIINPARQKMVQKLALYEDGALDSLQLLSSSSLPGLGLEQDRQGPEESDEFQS
Sequence of Mitogen-activated protein kinase 14 (Homo sapiens) (Q16539 whole entry): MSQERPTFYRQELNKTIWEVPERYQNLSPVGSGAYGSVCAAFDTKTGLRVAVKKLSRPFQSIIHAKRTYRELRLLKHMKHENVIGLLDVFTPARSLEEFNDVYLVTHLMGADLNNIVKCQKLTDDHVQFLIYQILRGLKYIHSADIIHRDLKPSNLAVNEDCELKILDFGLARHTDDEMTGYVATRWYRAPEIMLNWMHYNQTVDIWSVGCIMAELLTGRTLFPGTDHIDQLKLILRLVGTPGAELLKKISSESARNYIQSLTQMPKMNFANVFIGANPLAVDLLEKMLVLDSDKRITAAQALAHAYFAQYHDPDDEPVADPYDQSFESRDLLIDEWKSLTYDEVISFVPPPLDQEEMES
Sequence of Serine/threonine-protein kinase TAO1 (Homo sapiens) (Q7L7X3 whole entry): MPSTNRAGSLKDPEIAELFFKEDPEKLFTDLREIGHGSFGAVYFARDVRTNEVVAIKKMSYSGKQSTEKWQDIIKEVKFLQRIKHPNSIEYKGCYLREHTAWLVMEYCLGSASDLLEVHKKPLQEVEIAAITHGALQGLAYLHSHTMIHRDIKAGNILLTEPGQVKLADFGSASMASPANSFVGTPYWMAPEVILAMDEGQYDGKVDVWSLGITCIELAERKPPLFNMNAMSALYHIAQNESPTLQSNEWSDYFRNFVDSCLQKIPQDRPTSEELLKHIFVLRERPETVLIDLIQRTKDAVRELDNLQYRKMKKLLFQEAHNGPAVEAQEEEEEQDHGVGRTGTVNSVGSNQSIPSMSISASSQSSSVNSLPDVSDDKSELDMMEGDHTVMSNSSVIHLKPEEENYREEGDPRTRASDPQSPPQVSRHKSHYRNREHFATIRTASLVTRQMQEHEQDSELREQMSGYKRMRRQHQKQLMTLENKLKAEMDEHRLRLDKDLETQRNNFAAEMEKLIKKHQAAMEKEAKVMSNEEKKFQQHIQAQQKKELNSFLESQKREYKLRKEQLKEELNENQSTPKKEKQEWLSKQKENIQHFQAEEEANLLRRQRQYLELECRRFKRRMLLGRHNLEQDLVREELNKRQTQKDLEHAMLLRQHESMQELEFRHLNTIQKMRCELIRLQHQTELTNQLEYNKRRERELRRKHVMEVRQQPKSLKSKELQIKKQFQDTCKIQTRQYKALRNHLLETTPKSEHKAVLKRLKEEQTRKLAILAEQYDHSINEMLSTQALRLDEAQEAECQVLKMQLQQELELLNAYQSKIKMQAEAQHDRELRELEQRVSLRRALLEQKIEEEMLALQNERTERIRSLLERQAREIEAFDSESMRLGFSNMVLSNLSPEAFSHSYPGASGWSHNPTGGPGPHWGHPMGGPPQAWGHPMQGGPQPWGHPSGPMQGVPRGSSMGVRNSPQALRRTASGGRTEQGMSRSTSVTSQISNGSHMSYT
Sequence of Casein kinase I isoform gamma-2 (Homo sapiens) (P78368 whole entry, looked up, canonical isoform): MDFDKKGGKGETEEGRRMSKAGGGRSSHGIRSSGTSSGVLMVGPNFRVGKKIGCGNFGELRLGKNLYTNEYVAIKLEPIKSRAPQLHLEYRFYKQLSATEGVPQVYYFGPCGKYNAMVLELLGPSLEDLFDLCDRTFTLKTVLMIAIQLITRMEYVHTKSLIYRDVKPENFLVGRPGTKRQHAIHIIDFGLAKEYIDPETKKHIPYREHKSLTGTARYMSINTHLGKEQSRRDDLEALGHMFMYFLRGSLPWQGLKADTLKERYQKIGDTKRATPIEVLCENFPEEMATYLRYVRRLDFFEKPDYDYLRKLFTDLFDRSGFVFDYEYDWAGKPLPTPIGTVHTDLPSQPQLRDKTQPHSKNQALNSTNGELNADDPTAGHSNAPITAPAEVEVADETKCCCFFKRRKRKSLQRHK

`CN1C(=O)/C(=C2/C(=O)Nc3ccccc32)c2ccccc21` gave an Activity [1] of 64%, an Activity [2] of 100% and an Activity [3] of 89%. For the same compound, the Activity [4] was 95%, the Activity [5] was 64% and the Activity [6] was 94%. The Activity [7] was 100%, the Activity [8] was 84% and the Activity [9] was 99%. It also gave an Activity [10] of 56%, an Activity [11] of 93% and an Activity [12] of 100%. The Activity [13] was 100%, the Activity [14] was 88% and the Activity [15] was 99%. It also gave an Activity [16] of 100%, an Activity [17] of 84% and an Activity [18] of 100%. It also gave an Activity [19] of 99%, an Activity [20] of 97% and an Activity [21] of 87%. For the same compound, the Activity [22] was 100%, the Activity [23] was 100% and the Activity [24] was 96%. The Activity [25] was 100%, the Activity [26] was 87% and the Activity [27] was 81%. The Activity [28] was 88%, the Activity [29] was 77% and the Activity [30] was 91%.
